# Test results: EP4710775A1, “COMPOSITION FOR PROMOTING CHILD DEVELOPMENT” (Meiji Holdings Co., Ltd., priority 2023, dated 2024)
# Columns and labels:
# Type in all cases: in vivo, mouse (C57BL/6J)
# [1] = White fat weight measurement (white adipose tissue around the reproductive organ) after weaning; conditions: two weeks after weaning; relative weight corrected by body weight; males and females combined, n = 10 per group; NMN orally days 3 to 21 after birth; vs control group, p < 0.01
# Description: (§1) β-Nicotinamide mononucleotide (NMN) to be administered to mice was dissolved at a concentration of 100 mg/mL in distilled water and then used for administration.
# (§2) Ten female C57BL/6J lines at day 13 of gestation were purchased. The mice were individually raised in a breeding room at a room temperature of 22 ± 2°C, humidity of 55 ± 15%, light period of 7:00 to 19:00, and dark period of 19:00 to 7:00 until the birth of the pups, and after the birth, group breeding was performed with the pups until weaning, and the born mouse pups were used for the test.
# (§3) All the mouse pups were subjected to sex determination on day 3 after birth, and were divided into distilled water administration (later control group) and NMN administration (later NMN group) so that the number of males and females was approximately half in the littermates. […]
# The body weights of all the mouse pups were measured on the day of weaning, and the pups were divided into a total of four groups: a control group (n = 7) and an NMN group (n = 5) for males, and a control group (n = 3) and an NMN group (n = 5) also for females. After weaning, the mice were normally bred for 2 weeks and dissected, the white adipose tissue around the reproductive organ was extracted, and the weight thereof was measured. […]
# [2] = Open field test: amount of voluntary activity and average moving speed after weaning; conditions: two weeks after weaning, 10 minutes, males and females combined, n = 20 per group, NMN orally days 3 to 21 after birth, vs control group, p < 0.05
# Description: as §1
# as §2, with “test. […]” for “test.”
# (§4) The body weights of all the mouse pups were measured on the day of weaning, and the pups were divided into a total of four groups: a control group and an NMN group for males and a control group and an NMN group also for females (n = 10 for each group), so that the average values of the body weights were equal. […]
# Two weeks after weaning, an open field test was performed on all the individuals to measure the amount of voluntary activity and the average moving speed. […] From the obtained moving image, the amount of voluntary activity (total movement distance) and the average moving speed (average of moving speed excluding immobility state) were calculated using dedicated analysis software (SMART3.0: manufactured by Panlab).
# [3] = Measurement of plasma triglyceride concentration after weaning (Triglyceride E-test Wako); conditions: two weeks after weaning, males only, NMN n = 5, control n = 7, NMN orally days 3 to 21 after birth, vs control group
# Description: as §1, §2, §3
# (§5) The body weights of the mouse pups were measured on the day of weaning, and the pups were divided into a total of two groups: a control group (n = 7) and an NMN group (n = 5) only for males. […]
# Using the separated plasma, the triglyceride concentration was measured by a kit (Triglyceride E-test Wako: No. 432-40201).
# [4] = Measurement of blood glucose level in plasma after weaning (Glucose II-test Wako); conditions: two weeks after weaning, males only, NMN n = 5, control n = 7, NMN orally days 3 to 21 after birth, vs control group, p < 0.01
# Description: as §1, §2, §3, §5
# Using the separated plasma, the blood glucose concentration (blood glucose level) was measured by a kit (Glucose II-test Wako: No. 439-90901).
# [5] = Measurement of grip strength (forelimb) after weaning in mice given NMN in infancy; conditions: three weeks after weaning; males and females combined, n = 20 per group; corrected by body weight; NMN orally gavaged days 3 to 21 after birth (500 mg/kg BW from day 14); vs control group, p < 0.05
# Description: as §1
# as §2, with “test. […]” for “test.”
# as §4
# Three weeks after weaning, the grip strength (forelimb only) of all the individuals was measured using Grip Strength Meter for Rats & Mice (MK-380CM/F, manufactured by Muromachi Kikai Co., Ltd.). The measurement was performed 10 times per individual, and the maximum value was recorded. […]
compound,measurement,setting,value
"NC(=O)c1ccc[n+]([C@@H]2O[C@H](COP(=O)([O-])O)[C@@H](O)[C@H]2O)c1 [NMN, β-Nicotinamide mononucleotide]",white fat weight,[1],low as compared to that in the control group
same,average moving speed,[2]; excluding immobility state,high as compared to those in the control group
same,amount of voluntary activity,[2]; total movement distance,high as compared to those in the control group
same,blood triglyceride concentration,[3],tended to be low as compared to that in the control group
same,blood glucose levels,[4],significantly low as compared to those in the control group
same,grip strength,[5],high as compared to that in the control group
